# Patent US20220041691A1, “METHODS FOR DIAGNOSING OR TREATING POST-TRAUMATIC STRESS DISORDER, AND COMPOSITIONS THEREFOR” (Centre for Addiction and Mental Health, priority 2018, published 2022)
# “Also recorded” adds a separate entry of the source.
# Legend:
# GR-FKBP52 complex [1] = assay: Co-immunoprecipitation of GR-FKBP52 complex in mouse brain slices; type: cell-based; conditions: 10 μM, 30 min, vs untreated controls or TAT alone, p<0.05, n=3
# Description: (§1) To test this hypothesis, the effect of TAT-GRpep on GR-FKBP52 levels was examined using co-immunoprecipitation. […] Similar results were also obtained using confocal microscope in primary mouse neuron cultures.
# (§2) Co-immunoprecipitation and Western blot analyses were performed as previously described.^24, 25, 26 For co-immunoprecipitation, 500˜1000 μg solubilized protein was extracted from whole mouse brain and incubated with primary antibody or control IgG (2˜4 μg) for 4 hrs at 4° C., followed by the addition of 25 μl protein A/G plus agarose (Santa Cruz Biotechnology) for 12 hrs. Pellets were washed, boiled for 5 min in SDS sample buffer and subjected to SDS-PAGE. 50˜100 μg of total protein extract was used as control in each experiment. After transfer of proteins into nitrocellulose, membranes were Western blotted with the primary antibodies. The intensity of protein level was quantified by densitometry (software: ImageLab, Bio-Rad).
# (§3) Acute brain slices (350 μm thick) were prepared from C57Bl/6 mice with a McIlwain tissue chopper (Mickle Laboratory Engineering, Gomshall, United Kingdom). After being dissected from the brain, mouse cerebral hemispheres were left for 5 min in ice-cold artificial cerebrospinal fluid (aCSF) containing 126 mM NaCl, 2.5 mM KCl, 1 mM MgCl2, 1 mM CaCl2, 1.25 mM KH2PO4, 26 mM NaHCO3 and 20 mM glucose, which was bubbled continuously with carbogen (95% O2/5% CO2). […]
# fear-conditioned mice = assay: Cued fear conditioning, peptide injected into right amygdala or motor cortex; type: in vivo, mouse
# Description: Next, testing was performed to determine whether disrupting the GR-FKBP51 complex could reduce freezing behaviors in fear-conditioned mice as a model for PTSD-related symptoms. […] The animals were then subjected to two days of extinction, where the same cues were presented without foot shock, before cued fear memory was assessed. One hour before the fear memory assessment, animals were injected with either control peptide (TAT) or treatment peptide (TAT-GRpep) into the right amygdala. […] However, two-way ANOVA confirmed a significant effect of the cue (F1, 46=10.387, p<0.01) and peptide (F1,46=7.708, p<0.01). […] Both treatment groups reacted similarly to the cue (p=NS; FIG. 3E).
# Some of the animals were later subjected to implantation of cannula into either amygdala (AP−1.5, LM−3.0, DV−4.8) or motor cortex (AP+2.1, LM−2.0, DV−1.0). Following surgeries, animals were allowed one week to recover before subjected to any experimental procedures.
# Animals were first given a five-minute habituation to the apparatus (Habitest, Colbourne Instruments). Then, animals were exposed to 30 seconds of cue exposure (an in-house white light), which co-terminated with one second of foot-shock (0.5 mA). […]
# The expression of fear (in a different context from training) was assessed 24 hours after the last extinction training. […] The duration of freezing behaviors was recorded by a blinded experimenter. […]
# GR-FKBP51 complex = target: T1, GR-FKBP51 complex (Mus musculus, UniProt Q64378); assay: Co-immunoprecipitation of GR-FKBP51 complex in acute mouse brain slices treated with peptide; type: cell-based; conditions: versus control TAT peptide
# T1 construct: from tissue; host or cells: C57Bl/6 mouse brain (acute slices; whole-brain lysate) and blood lymphocytes
# T1 sequence (Q64378 1-456): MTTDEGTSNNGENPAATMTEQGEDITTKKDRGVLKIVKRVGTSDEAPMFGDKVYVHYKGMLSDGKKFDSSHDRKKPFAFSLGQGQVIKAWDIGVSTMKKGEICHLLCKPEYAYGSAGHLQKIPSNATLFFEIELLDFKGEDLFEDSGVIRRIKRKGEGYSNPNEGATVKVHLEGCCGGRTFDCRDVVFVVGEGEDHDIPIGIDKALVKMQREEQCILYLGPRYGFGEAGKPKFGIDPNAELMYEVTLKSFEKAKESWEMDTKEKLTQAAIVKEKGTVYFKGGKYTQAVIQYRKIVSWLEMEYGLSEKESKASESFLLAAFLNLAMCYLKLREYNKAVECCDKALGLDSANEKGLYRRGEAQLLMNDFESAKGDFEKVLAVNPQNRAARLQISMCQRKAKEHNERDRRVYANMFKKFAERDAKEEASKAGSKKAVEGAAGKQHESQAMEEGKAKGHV
# Description: Thus, it is concluded that the GRNT-4-1 region is important for GR-FKBP51 complex formation, and that GRpep disrupted the GR-FKBP51 complex.
# as §2, §3
# nuclear GR [2] = assay: Nuclear protein isolation, nuclear GR in mouse brain slices; type: cell-based; conditions: 10 μM, 30 min, vs TAT or untreated controls, p<0.001, n=3
# Description: as §1
# Acute brain slices (350 μm thick) were prepared from C57Bl/6 mice with a McIlwain tissue chopper (Mickle Laboratory Engineering, Gomshall, United Kingdom). After being dissected from the brain, mouse cerebral hemispheres were left for 5 min in ice-cold artificial cerebrospinal fluid (aCSF) containing 126 mM NaCl, 2.5 mM KCl, 1 mM MgCl2, 1 mM CaCl2, 1.25 mM KH2PO4, 26 mM NaHCO3 and 20 mM glucose, which was bubbled continuously with carbogen (95% O2/5% CO2). Freshly cut slices were placed in an incubating chamber with carbogenated aCSF and recovered from stress at 37° C. for 1 hour. Slices were then treated with TAT or TAT-GRpep and harvested for Western blot analysis.
# (§4) Nuclear protein isolation assays were performed in acute mouse brain slices or mouse brain tissue using the Nuclear Protein Extraction Kit (Bio Basic Inc., Amherst, N.Y.). Briefly, after treatment with TAT or TAT-GRpep, mouse brain slices were harvested for nuclear protein extraction according to the manufacturer's instructions.
# nuclear GR [3] = assay: Nuclear protein isolation, nuclear GR in brain of fear-conditioned mice; type: in vivo, mouse; conditions: 3 nmol/g i.p, vs TAT alone or saline, p<0.05, n=4
# Description: as §4
# GR-FKBP52 complex [4] = assay: Co-immunoprecipitation of GR-FKBP52 complex in brain of fear-conditioned mice; type: in vivo; conditions: fear-conditioned mouse brain, 3 nmol/g i.p; vs TAT alone or saline; p<0.05, n=3
# Description: as §2
sequence,measurement,setting,value
GRKKRRQRRRPQSPWRSDLLIDENCLL (Amino Acid Sequence of TAT-GRpep Peptide),GR-FKBP52 complex (FKBP52 co-immunoprecipitated by GR antibody),GR-FKBP52 complex [1],more FKBP52 was co-immunoprecipitated by GR antibody; also recorded: significantly increased the amount of GR-FKBP52 complex
same,"freezing behavior, cued fear memory assessment","fear-conditioned mice; injected into right amygdala one hour before assessment, after two days of extinction, vs control peptide, p<0.01",significantly lower level of freezing behavior; also recorded: significantly less freezing than controls
same,"freezing behavior, cued fear memory assessment","fear-conditioned mice; peptide infused into motor cortex instead of amygdala, p=NS",did not affect freezing
same,GR-FKBP51 complex level (co-immunoprecipitation),GR-FKBP51 complex,able to disrupt the GR-FKBP51 complex; also recorded: reduced GR-FKBP51 levels
same,nuclear GR level / proportion of GR in the nucleus,nuclear GR [2],higher levels of nuclear GR; also recorded: significantly increased
same,nuclear GR level / GR nuclear localization,nuclear GR [3],higher levels of nuclear GR; also recorded: increased
same,GR-FKBP52 complex (FKBP52 co-immunoprecipitated by GR antibody),GR-FKBP52 complex [4],more FKBP52 was co-immunoprecipitated by GR antibody; also recorded: significant increases in GR-FKBP52 complex levels
